Legend:
Histamine H3 receptor = Histamine H3 receptor (Homo sapiens, UniProt Q9Y5N1)
[1] = molecular target: T1, Muscarinic acetylcholine receptor M1 (Homo sapiens, UniProt P11229); format: functional, cell-based
T1 sequence (P11229 whole entry): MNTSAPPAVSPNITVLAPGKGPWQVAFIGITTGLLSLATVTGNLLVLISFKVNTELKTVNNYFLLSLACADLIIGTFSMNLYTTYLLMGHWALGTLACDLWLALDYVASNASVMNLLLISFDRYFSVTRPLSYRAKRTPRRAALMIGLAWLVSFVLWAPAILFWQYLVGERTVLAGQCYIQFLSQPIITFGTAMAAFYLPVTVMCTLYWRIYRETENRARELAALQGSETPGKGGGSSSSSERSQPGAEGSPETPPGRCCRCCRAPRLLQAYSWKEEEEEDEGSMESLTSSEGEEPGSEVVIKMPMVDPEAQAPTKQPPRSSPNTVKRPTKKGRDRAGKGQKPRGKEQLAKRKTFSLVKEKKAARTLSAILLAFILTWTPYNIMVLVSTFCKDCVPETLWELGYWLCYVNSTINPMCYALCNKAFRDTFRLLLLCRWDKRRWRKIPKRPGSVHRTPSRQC

Thromboxane A2 receptor = molecular target: T2, Thromboxane A2 receptor (Homo sapiens, UniProt P21731)
T2 sequence (P21731 whole entry): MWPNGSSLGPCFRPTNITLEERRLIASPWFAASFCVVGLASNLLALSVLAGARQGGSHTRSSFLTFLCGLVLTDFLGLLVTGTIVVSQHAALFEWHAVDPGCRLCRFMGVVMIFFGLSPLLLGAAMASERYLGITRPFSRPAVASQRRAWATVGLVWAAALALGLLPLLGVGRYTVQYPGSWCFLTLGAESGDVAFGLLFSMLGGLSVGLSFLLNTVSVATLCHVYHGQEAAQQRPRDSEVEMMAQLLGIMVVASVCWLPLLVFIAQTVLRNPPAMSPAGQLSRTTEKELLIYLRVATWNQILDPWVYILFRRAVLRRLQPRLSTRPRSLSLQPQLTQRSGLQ

[2] = molecular target: T3, 5-hydroxytryptamine receptor 2B (Homo sapiens, UniProt P41595); format: functional, cell-based
T3 sequence (P41595 whole entry): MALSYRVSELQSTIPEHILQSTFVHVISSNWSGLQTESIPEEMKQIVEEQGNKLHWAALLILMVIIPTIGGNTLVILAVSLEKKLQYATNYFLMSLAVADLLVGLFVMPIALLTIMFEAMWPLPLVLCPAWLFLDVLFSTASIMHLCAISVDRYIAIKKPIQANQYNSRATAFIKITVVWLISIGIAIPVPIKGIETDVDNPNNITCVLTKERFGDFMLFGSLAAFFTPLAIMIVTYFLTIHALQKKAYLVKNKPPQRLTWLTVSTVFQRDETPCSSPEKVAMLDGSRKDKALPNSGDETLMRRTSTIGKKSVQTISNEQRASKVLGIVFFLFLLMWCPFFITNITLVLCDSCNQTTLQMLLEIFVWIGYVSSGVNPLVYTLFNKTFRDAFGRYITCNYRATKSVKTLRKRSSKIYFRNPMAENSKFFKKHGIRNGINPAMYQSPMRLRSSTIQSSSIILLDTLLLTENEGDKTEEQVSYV

Cannabinoid receptor 1 = Cannabinoid receptor 1 (Homo sapiens, UniProt P21554)
Chain of Cannabinoid receptor 1 (P21554 whole entry): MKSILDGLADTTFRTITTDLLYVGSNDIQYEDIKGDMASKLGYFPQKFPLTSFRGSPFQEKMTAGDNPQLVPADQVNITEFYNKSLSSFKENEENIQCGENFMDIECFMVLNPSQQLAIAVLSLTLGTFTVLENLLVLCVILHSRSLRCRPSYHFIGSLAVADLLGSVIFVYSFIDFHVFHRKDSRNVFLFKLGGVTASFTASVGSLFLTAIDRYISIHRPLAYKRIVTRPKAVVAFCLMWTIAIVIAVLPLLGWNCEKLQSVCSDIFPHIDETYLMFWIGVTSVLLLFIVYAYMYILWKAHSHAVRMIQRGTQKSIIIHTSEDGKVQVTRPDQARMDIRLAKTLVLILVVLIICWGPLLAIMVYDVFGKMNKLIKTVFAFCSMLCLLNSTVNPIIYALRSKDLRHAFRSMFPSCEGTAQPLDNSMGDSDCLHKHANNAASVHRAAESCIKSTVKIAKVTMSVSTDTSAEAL

[3] = molecular target: T4, 5-hydroxytryptamine receptor 1A (Homo sapiens, UniProt P08908)
T4 sequence (P08908 whole entry): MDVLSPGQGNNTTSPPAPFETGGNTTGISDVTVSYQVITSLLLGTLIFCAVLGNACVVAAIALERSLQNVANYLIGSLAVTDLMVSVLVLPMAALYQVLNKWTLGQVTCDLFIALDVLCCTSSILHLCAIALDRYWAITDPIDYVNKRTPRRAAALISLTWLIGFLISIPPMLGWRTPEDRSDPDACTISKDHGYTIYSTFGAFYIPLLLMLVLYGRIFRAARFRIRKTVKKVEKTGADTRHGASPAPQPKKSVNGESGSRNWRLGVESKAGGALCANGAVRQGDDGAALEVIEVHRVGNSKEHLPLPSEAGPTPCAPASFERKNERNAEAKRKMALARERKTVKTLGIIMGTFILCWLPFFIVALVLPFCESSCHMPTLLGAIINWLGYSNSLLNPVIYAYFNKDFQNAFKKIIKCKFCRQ

[4] = molecular target: Sodium-dependent dopamine transporter (Homo sapiens, UniProt Q01959)
Chain of Sodium-dependent dopamine transporter (Q01959 whole entry): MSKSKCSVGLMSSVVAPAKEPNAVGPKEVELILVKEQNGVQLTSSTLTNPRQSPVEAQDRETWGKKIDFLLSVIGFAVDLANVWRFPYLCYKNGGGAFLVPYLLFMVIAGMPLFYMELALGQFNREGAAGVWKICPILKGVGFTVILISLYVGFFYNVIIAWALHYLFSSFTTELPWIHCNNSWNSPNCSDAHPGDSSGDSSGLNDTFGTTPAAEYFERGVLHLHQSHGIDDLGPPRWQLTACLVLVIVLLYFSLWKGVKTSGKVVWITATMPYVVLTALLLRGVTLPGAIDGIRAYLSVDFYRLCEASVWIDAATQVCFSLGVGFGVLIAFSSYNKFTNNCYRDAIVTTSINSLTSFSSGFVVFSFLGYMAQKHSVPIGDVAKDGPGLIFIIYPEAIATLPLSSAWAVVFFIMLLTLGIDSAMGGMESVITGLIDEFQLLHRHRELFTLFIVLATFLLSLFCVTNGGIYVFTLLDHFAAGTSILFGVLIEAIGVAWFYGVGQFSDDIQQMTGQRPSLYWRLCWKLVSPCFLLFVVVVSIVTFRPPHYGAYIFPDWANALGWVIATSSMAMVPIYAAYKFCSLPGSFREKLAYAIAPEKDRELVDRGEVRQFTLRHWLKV

D(3) dopamine receptor = D(3) dopamine receptor (Homo sapiens, UniProt P35462)
Chain of D(3) dopamine receptor (P35462 whole entry): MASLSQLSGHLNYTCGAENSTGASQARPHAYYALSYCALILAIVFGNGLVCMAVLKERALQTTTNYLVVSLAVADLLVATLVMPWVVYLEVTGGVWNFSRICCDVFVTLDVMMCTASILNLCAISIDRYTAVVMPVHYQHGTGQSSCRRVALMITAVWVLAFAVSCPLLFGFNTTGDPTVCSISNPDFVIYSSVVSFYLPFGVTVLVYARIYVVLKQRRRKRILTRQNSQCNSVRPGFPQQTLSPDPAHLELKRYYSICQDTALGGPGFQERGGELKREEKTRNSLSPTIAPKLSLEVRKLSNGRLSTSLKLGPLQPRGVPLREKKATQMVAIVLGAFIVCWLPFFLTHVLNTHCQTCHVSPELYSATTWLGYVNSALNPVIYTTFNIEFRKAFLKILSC

Melanocortin receptor 4 = Melanocortin receptor 4 (Homo sapiens, UniProt P32245)
Chain of Melanocortin receptor 4 (P32245 whole entry): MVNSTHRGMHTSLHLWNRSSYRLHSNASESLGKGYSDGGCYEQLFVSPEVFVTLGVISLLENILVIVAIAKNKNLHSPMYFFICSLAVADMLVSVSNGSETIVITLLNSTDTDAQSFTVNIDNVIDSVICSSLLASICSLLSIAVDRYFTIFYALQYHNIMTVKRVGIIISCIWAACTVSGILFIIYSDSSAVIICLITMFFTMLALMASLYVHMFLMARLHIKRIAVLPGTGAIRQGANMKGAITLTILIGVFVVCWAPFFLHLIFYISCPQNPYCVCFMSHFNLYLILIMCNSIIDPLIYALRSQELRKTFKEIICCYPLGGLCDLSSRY

[5] = molecular target: Prostaglandin G/H synthase 1 (Homo sapiens, UniProt P23219); format: functional
Chain of Prostaglandin G/H synthase 1 (P23219 whole entry): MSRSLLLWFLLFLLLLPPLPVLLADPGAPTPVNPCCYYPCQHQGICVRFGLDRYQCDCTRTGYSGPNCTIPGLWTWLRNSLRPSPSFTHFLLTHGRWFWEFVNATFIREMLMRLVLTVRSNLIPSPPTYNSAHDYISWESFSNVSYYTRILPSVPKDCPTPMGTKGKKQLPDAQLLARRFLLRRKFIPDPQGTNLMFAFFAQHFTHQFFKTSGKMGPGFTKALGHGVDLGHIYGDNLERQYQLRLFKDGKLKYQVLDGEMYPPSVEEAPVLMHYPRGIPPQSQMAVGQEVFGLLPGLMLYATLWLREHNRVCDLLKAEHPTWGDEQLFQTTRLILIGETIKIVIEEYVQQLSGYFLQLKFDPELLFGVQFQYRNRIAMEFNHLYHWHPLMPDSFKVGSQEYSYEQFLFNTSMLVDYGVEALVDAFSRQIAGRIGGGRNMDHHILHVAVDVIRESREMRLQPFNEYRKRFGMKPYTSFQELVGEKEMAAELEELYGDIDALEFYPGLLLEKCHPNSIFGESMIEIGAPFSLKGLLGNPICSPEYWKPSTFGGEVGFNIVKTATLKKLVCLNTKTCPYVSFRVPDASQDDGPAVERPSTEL

Histamine H2 receptor = Histamine H2 receptor (Homo sapiens, UniProt P25021); format: functional, cell-based
Chain of Histamine H2 receptor (P25021 whole entry): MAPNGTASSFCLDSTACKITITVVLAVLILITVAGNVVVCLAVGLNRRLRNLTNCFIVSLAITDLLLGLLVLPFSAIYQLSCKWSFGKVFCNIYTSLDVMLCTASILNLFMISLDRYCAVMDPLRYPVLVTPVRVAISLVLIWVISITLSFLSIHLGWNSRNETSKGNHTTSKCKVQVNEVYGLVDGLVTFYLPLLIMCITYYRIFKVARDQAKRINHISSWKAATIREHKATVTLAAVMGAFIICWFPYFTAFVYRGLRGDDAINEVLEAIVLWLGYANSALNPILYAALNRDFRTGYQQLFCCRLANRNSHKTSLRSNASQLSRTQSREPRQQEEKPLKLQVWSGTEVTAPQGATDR

[6] = molecular target: T3, 5-hydroxytryptamine receptor 2B; format: functional, cell-based; remark: listed apart in the source
Progesterone receptor = molecular target: T5, Progesterone receptor (Homo sapiens, UniProt P06401); format: functional
T5 sequence (P06401 whole entry): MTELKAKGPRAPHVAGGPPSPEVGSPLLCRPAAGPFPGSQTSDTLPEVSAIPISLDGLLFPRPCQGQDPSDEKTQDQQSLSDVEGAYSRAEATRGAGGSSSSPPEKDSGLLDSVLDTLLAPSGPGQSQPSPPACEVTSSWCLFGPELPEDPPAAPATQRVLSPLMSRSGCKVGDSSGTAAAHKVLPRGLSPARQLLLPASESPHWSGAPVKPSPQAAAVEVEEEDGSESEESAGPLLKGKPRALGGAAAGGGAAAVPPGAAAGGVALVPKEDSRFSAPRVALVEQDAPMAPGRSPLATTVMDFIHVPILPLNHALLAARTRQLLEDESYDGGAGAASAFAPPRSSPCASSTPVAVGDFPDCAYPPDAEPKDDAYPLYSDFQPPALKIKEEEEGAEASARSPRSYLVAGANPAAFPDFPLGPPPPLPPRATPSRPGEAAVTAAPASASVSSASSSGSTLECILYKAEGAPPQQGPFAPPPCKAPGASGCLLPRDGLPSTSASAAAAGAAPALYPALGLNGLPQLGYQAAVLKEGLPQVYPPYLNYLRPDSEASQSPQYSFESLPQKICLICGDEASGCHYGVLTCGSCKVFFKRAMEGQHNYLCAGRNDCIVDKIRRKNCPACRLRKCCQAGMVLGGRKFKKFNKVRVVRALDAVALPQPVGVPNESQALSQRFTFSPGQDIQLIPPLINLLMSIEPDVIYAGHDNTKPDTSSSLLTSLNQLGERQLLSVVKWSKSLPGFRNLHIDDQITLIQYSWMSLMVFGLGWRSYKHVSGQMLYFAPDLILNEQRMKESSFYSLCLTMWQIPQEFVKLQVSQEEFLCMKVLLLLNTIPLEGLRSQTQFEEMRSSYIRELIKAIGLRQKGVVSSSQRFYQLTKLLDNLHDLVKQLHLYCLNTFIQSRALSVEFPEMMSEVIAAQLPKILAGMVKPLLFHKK
Also: assay procedure not described here.

Chain of Histamine H3 receptor (Q9Y5N1 whole entry): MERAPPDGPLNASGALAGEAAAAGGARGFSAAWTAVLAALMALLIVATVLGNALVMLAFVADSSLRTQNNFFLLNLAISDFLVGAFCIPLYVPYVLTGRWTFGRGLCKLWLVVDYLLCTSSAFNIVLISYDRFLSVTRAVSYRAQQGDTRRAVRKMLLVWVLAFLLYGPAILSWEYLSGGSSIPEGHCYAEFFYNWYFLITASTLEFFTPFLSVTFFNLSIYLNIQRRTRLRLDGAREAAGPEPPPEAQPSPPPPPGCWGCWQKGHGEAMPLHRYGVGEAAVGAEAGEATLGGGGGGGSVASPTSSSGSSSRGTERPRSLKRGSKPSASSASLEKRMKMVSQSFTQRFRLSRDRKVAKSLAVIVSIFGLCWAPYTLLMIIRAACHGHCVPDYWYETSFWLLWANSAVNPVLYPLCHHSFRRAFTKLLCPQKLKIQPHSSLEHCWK

SMILES | AC50 (Histamine H3 receptor) [µM] | AC50 [1] [µM] | AC50 (Thromboxane A2 receptor) [µM] | AC50 [2] [µM] | AC50 (Cannabinoid receptor 1) [µM] | AC50 [3] [µM] | AC50 [4] [µM] | AC50 (D(3) dopamine receptor) [µM] | AC50 (Melanocortin receptor 4) [µM] | AC50 [5] [µM] | AC50 (Histamine H2 receptor) [µM] | AC50 [6] [µM] | AC50 (Progesterone receptor) [µM]
CC1(C)NC(=O)N(c2ccc([N+](=O)[O-])c(C(F)(F)F)c2)C1=O [NILUTAMIDE] | > 30 | > 30 | > 30 | > 30 | > 30 | > 30 | > 30 | > 30 | > 30 | > 30 | > 30 | > 30 | > 30
NCC(CC(=O)O)c1ccc(Cl)cc1 (stereo not given) [BACLOFEN] | > 30 |  | > 30 | > 30 | > 10 | > 30 | > 30 | 14.7 | > 30 | > 30 | > 10 | > 30 | > 30
